These compounds were tested against T1, PRMT5/MEP50 (Homo sapiens, UniProt O14744) (assay: PRMT5 Biochemical Assay (PRMT5/MEP50 enzyme assay on peptide substrate, 3H-SAM Flashplate)).
T1 construct: Flag-PRMT5; 6His-MEP50
Method in brief: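 FLAG-PRMT5/His-MEP50 from Sf9 cells (4 nM) preincubated 30 min at 25 °C with compound in 20 mM Bicine pH 7.6, 1 mM TCEP, 1% DMSO. Reaction started with 75 nM 3H-SAM on 40 nM biotinylated H4 1-15 peptide, stopped with cold SAM. Bound 3H-peptide counted on streptavidin Flashplates, normalised to DMSO and 100 uM SAH controls.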

T1 sequence (O14744 with tags, fused parts or gaps): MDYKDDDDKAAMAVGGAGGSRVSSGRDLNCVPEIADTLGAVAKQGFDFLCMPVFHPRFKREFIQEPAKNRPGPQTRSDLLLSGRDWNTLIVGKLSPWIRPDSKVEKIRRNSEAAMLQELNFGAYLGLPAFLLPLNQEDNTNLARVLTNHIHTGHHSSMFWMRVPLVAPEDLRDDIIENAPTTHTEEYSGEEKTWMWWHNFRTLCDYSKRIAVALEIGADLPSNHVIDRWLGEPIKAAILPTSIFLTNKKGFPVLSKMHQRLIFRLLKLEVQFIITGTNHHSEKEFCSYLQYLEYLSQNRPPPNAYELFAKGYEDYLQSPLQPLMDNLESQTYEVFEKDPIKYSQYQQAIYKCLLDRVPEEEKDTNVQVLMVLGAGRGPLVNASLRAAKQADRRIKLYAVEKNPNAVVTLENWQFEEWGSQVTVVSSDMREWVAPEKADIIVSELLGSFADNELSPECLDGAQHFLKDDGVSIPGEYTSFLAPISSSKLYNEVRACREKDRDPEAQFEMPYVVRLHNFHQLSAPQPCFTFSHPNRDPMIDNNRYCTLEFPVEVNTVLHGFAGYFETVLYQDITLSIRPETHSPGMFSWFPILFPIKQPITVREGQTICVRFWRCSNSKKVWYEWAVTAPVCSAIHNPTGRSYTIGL
T1 sequence (Q9BQA1 with tags, fused parts or gaps partner): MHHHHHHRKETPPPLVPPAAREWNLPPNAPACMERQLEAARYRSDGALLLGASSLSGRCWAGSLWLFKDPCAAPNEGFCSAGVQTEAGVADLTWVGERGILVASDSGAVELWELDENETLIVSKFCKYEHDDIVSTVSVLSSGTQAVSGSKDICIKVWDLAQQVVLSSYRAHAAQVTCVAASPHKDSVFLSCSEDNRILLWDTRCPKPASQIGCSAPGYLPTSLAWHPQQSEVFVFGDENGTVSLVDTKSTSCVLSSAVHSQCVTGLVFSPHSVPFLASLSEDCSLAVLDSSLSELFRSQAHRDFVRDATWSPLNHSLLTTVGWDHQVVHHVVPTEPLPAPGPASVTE

| SMILES | IC50 |
| --- | --- |
| CC(=O)Nc1cccc(-c2cccc(OCC(O)CN3CCc4ccccc4C3)c2)c1 (stereo not drawn) [Compound 169] | 0.101 to 1 µM |
| OC(COc1cccc(-c2csc3ccccc23)c1)CN1CCc2ccccc2C1 (stereo not drawn) [Compound 170] | 0.101 to 1 µM |
| NC(=O)c1cccc(-c2cccc(OCC(O)CN3CCc4ccccc4C3)c2)c1 (stereo not drawn) [Compound 171] | 0.101 to 1 µM |
| N#Cc1cccc(-c2cccc(OCC(O)CN3CCc4ccccc4C3)c2)c1 (stereo not drawn) [Compound 172] | 0.101 to 1 µM |
| OC(COC1CCN(c2ccccc2)C1)CN1CCc2ccccc2C1 (stereo not drawn) [Compound 175] | 1 to 10 µM |
| COc1ccc2c(c1)CN(CC(O)COc1cccc(-c3ccc4ncn(C)c4c3)c1)CC2 (stereo not drawn) [Compound 177] | 10 to 40 µM |
| CCC1c2ccccc2CCN1CC(O)COc1cccc(-c2ccc3ncn(C)c3c2)c1 (stereo not drawn) [Compound 179] | 0.101 to 1 µM |
| O=C(c1cncc(-c2cccc(OCC(O)CN3CCc4ccccc4C3)c2)c1)N1CCCC1 (stereo not drawn) [Compound 181] | 1 to 10 µM |
| CNC(=O)c1cncc(-c2cccc(OCC(O)CN3CCc4ccccc4C3)c2)c1 (stereo not drawn) [Compound 182] | 1 to 10 µM |
| Cn1cnc(C(=O)Nc2cccc(OCC(O)CN3CCc4ccccc4C3)c2)c1 (stereo not drawn) [Compound 183] | 1 to 10 µM |
| O=C(Nc1cccc(OCC(O)CN2CCc3ccccc3C2)c1)c1ccnnc1 (stereo not drawn) [Compound 184] | 1 to 10 µM |
| O=C(c1cccc(-c2cccc(OCC(O)CN3CCc4ccccc4C3)c2)c1)N1CCCC1 (stereo not drawn) [Compound 185] | 0.101 to 1 µM |
| CNC(=O)c1cccc(-c2cccc(OCC(O)CN3CCc4ccccc4C3)c2)c1 (stereo not drawn) [Compound 186] | 0.101 to 1 µM |
| Cc1cn(C)c2cc(-c3cccc(OCC(O)CN4CCc5ccccc5C4)c3)ccc12 (stereo not drawn) [Compound 187] | 0.101 to 1 µM |
| OC(COc1cccc(-c2ccc3ncoc3c2)c1)CN1CCc2ccccc2C1 (stereo not drawn) [Compound 188] | 0.101 to 1 µM |
| OC(COc1cccc(-c2ccncc2F)c1)CN1CCc2ccccc2C1 (stereo not drawn) [Compound 190] | 1 to 10 µM |
| Cn1cnc2cnc(-c3cccc(OCC(O)CN4CCc5ccccc5C4)c3)nc21 (stereo not drawn) [Compound 191] | 0.101 to 1 µM |
| Cc1cccc2c1CN(CC(O)COc1cccc(-c3ccc4ncn(C)c4c3)c1)CC2 (stereo not drawn) [Compound 192] | 1 to 10 µM |
| OC(COc1cccc(N2CCc3[nH]nc(-c4ccccc4)c3C2)c1)CN1CCc2ccccc2C1 (stereo not drawn) [Compound 194] | 1 to 10 µM |
| Cn1cncc1C(=O)Nc1cccc(OCC(O)CN2CCc3ccccc3C2)c1 (stereo not drawn) [Compound 195] | 1 to 10 µM |
| CN(C(=O)c1cnco1)c1cccc(OCC(O)CN2CCc3ccccc3C2)c1 (stereo not drawn) [Compound 196] | 1 to 10 µM |
| CN(C(=O)c1cn(C)cn1)c1cccc(OCC(O)CN2CCc3ccccc3C2)c1 (stereo not drawn) [Compound 197] | 1 to 10 µM |
| CN(C(=O)c1cocn1)c1cccc(OCC(O)CN2CCc3ccccc3C2)c1 (stereo not drawn) [Compound 198] | 10 to 40 µM |
| OC(COc1cccc(-c2cc(OC(F)(F)F)ccc2Cl)c1)CN1CCc2ccccc2C1 (stereo not drawn) [Compound 200] | 0.101 to 1 µM |
| CC(C)Oc1ccc(F)c(-c2cccc(OCC(O)CN3CCc4ccccc4C3)c2)c1 (stereo not drawn) [Compound 201] | 0.101 to 1 µM |
| CN(C(=O)c1cncn1C)c1cccc(OCC(O)CN2CCc3ccccc3C2)c1 (stereo not drawn) [Compound 203] | 1 to 10 µM |

| SMILES | IC50 |
| --- | --- |
| CN(C(=O)c1cccnc1)c1cccc(OCC(O)CN2CCc3ccccc3C2)c1 (stereo not drawn) [Compound 204] | 1 to 10 µM |
| Cn1ncc2ccc(-c3cc(NCC(O)CN4CCc5ccccc5C4)ncn3)cc21 (stereo not drawn) [Compound 205] | 0.101 to 1 µM |
| CNC(=O)Cn1ccc2cnc(-c3cccc(OCC(O)CN4CCc5ccccc5C4)c3)nc21 (stereo not drawn) [Compound 206] | 1 to 10 µM |
| Cn1cnc2ccc(-c3cc(NCC(O)CN4CCc5ccccc5C4)ncn3)cc21 (stereo not drawn) [Compound 207] | 0.101 to 1 µM |
| Cn1cnc2ccc(-c3cccc(OCC(O)CN4CCc5ccccc5C4(C)C)c3)cc21 (stereo not drawn) [Compound 211] | 1 to 10 µM |
| Cc1ccc2c(c1)CN(CC(O)COc1cccc(-c3ccc4ncn(C)c4c3)c1)CC2 (stereo not drawn) [Compound 212] | 1 to 10 µM |
| Cc1cccc2c1CCN(CC(O)COc1cccc(-c3ccc4ncn(C)c4c3)c1)C2 (stereo not drawn) [Compound 213] | 1 to 10 µM |
| Cn1cnc2ccc(-c3cccc(OCC(O)CN4CCc5ccc(Cl)cc5C4)c3)cc21 (stereo not drawn) [Compound 214] | 1 to 10 µM |
| Cn1cnc2ccc(-c3cccc(OCC(O)CN4CCc5c(Cl)cccc5C4)c3)cc21 (stereo not drawn) [Compound 215] | 1 to 10 µM |
| Cn1ncc2c1CN(c1cccc(OCC(O)CN3CCc4ccccc4C3)c1)CC2 (stereo not drawn) [Compound 216, 1-(3,4-dihydroisoquinolin-2(1H)-yl)-3-(3-(1-methyl-4,5-dihydro-1H-pyrazolo[3,4-c]pyridin-6(7H)-yl)phenoxy)propan-2-ol] | 0.101 to 1 µM |
| Cn1cnc2ccc(-c3cc(NCC(O)CN4CCc5ccccc5C4)ccn3)cc21 (stereo not drawn) [Compound 217] | 0.101 to 1 µM |
| O=C(Cn1ccc2cnc(-c3cccc(OCC(O)CN4CCc5ccccc5C4)c3)nc21)N1CCOCC1 (stereo not drawn) [Compound 222] | 0.101 to 1 µM |
| Cn1cc2ccc(-c3cc(NCC(O)CN4CCc5ccccc5C4)ncn3)cc2n1 (stereo not drawn) [Compound 224] | 0.101 to 1 µM |
| CC(=O)N1CCC(n2cnc3ccc(-c4cccc(OCC(O)CN5CCc6ccccc6C5)c4)cc32)CC1 (stereo not drawn) [Compound 228, 1-(4-(6-(3-(3-(3,4-dihydroisoquinolin-2(1H)-yl)-2-hydroxypropoxy)phenyl)-1H-benzo[d]imidazol-1-yl)piperidin-1-yl)ethanone] | 0.101 to 1 µM |
| O=C(Cn1ccc2cnc(-c3cccc(OCC(O)CN4CCc5ccccc5C4)c3)nc21)N1CCCC1 (stereo not drawn) [Compound 231] | 0.101 to 1 µM |
| O=C(Cn1ccc2cnc(-c3cccc(OCC(O)CN4CCc5ccccc5C4)c3)nc21)N1CCCCC1 (stereo not drawn) [Compound 232] | 0.101 to 1 µM |
| Cn1ccc2ccc(-c3cc(NCC(O)CN4CCc5ccccc5C4)ncn3)cc21 (stereo not drawn) [Compound 237] | 0.101 to 1 µM |
| CC(=O)N1CCC(n2cnc3ccc(-c4ccnc(NCC(O)CN5CCc6ccccc6C5)c4)cc32)CC1 (stereo not drawn) [Compound 242] | 0.101 to 1 µM |
| CC(=O)N1CCC(n2cnc3cnc(-c4cccc(OCC(O)CN5CCc6ccccc6C5)c4)nc32)CC1 (stereo not drawn) [Compound 243] | 0.101 to 1 µM |
| CN1CCN(C(=O)Cn2ccc3cnc(-c4cccc(OCC(O)CN5CCc6ccccc6C5)c4)nc32)CC1 (stereo not drawn) [Compound 244] | 0.101 to 1 µM |
| Cn1ncc2cnc(-c3cccc(OCC(O)CN4CCc5ccccc5C4)c3)cc21 (stereo not drawn) [Compound 248, 1-(3,4-dihydroisoquinolin-2(1H)-yl)-3-(3-(1-methyl-1H-pyrazolo[4,3-c]pyridin-6-yl)phenoxy)propan-2-ol] | 0.101 to 1 µM |
| O=C(Cn1cnc2ccc(-c3cccc(OCC(O)CN4CCc5ccccc5C4)c3)cc21)N1CCCCC1 (stereo not drawn) [Compound 249] | 0.101 to 1 µM |
| O=C(Cn1cnc2ccc(-c3cccc(OCC(O)CN4CCc5ccccc5C4)c3)cc21)N1CCCC1 (stereo not drawn) [Compound 263] | 0.101 to 1 µM |
| O=C(Nc1ccccn1)c1cccc(OCC(O)CN2CCc3ccccc3C2)c1 (stereo not drawn) [Compound 267] | 0.101 to 1 µM |
| O=C(Nc1cccnc1)c1cccc(OCC(O)CN2CCc3ccccc3C2)c1 (stereo not drawn) [Compound 268] | 1 to 10 µM |
| CN1CCN(C(=O)Cn2cnc3ccc(-c4cccc(OCC(O)CN5CCc6ccccc6C5)c4)cc32)CC1 (stereo not drawn) [Compound 270] | 0.101 to 1 µM |

| SMILES | IC50 |
| --- | --- |
| Cn1cnc2ccc(-c3cc(NCC(O)CN4CCc5ccccc5C4)n[nH]3)cc21 (stereo not drawn) [Compound 271, 1-(3,4-dihydroisoquinolin-2(1H)-yl)-3-((5-(1-methyl-1H-benzo[d]imidazol-6-yl)-1H-pyrazol-3-yl)amino)propan-2-ol] | 0.101 to 1 µM |
| Cn1cnc2cc(-c3cc(NCC(O)CN4CCc5ccccc5C4)n[nH]3)ccc21 (stereo not drawn) [Compound 272, 1-(3,4-dihydroisoquinolin-2(1H)-yl)-3-((5-(1-methyl-1H-benzo[d]imidazol-5-yl)-1H-pyrazol-3-yl)amino)propan-2-ol] | 0.101 to 1 µM |
| O=C(Nc1cc[nH]n1)c1cccc(OCC(O)CN2CCc3ccccc3C2)c1 (stereo not drawn) [Compound 274] | 1 to 10 µM |
| COc1c(COCC(O)CN2CCc3ccccc3C2)ccc2ccccc12 (stereo not drawn) [Compound 279] | 1 to 10 µM |
| OC(COCc1c(Cl)cccc1Cl)CN1CCc2ccccc2C1 (stereo not drawn) [Compound 280] | 1 to 10 µM |
| OC(COCc1ccc(Cl)cc1Cl)CN1CCc2ccccc2C1 (stereo not drawn) [Compound 281] | 1 to 10 µM |
| OC(COCc1ccccn1)CN1CCc2ccccc2C1 (stereo not drawn) [Compound 282] | 10 to 40 µM |
| OC(COCc1cccnc1)CN1CCc2ccccc2C1 (stereo not drawn) [Compound 283] | 10 to 40 µM |
| OC(COCc1ccncc1)CN1CCc2ccccc2C1 (stereo not drawn) [Compound 284] | 10 to 40 µM |
| OC(COc1ccc2c(c1)OCO2)CN1CCc2ccccc2C1 (stereo not drawn) [Compound 285] | 1 to 10 µM |
| CCCCNCc1cccc(COCC(O)CN2CCc3ccccc3C2)c1 (stereo not drawn) [Compound 286] | 0.101 to 1 µM |
| CC(C)(C)OC(=O)N1CCC(OCC(O)CN2CCc3ccccc3C2)C1 (stereo not drawn) [Compound 287] | 1 to 10 µM |
| COc1cccc(COCC(O)CN2CCc3ccccc3C2)c1 (stereo not drawn) [Compound 288] | 1 to 10 µM |
| CC(C)(C)OC(=O)N1CC(OCC(O)CN2CCc3ccccc3C2)C1 (stereo not drawn) [Compound 290] | 1 to 10 µM |
| CC(C)(C)OC(=O)N1CCCC(OCC(O)CN2CCc3ccccc3C2)C1 (stereo not drawn) [Compound 291] | 1 to 10 µM |
| CC(C)(C)OC(=O)N1CCC(OCC(O)CN2CCc3ccccc3C2)CC1 (stereo not drawn) [Compound 292] | 1 to 10 µM |
| OC(COCC1CCCCC1)CN1CCc2ccccc2C1 (stereo not drawn) [Compound 294] | 1 to 10 µM |
| CC(OCC(O)CN1CCc2ccccc2C1)c1cccnc1 (stereo not drawn) [Compound 299] | 10 to 40 µM |
| OC(COCC1COc2ccccc2O1)CN1CCc2ccccc2C1 (stereo not drawn) [Compound 300] | 0.101 to 1 µM |
| OC(COC1Cc2ccccc2C1)CN1CCc2ccccc2C1 (stereo not drawn) [Compound 301] | 1 to 10 µM |
| OC(COC1CCCC1)CN1CCc2ccccc2C1 (stereo not drawn) [Compound 302] | 1 to 10 µM |
| OC(COCC1CC1)CN1CCc2ccccc2C1 (stereo not drawn) [Compound 303] | 1 to 10 µM |
| OC(COCC1CCCO1)CN1CCc2ccccc2C1 (stereo not drawn) [Compound 305] | 10 to 40 µM |
| OC(COCc1ccccc1)CN1CCc2ccccc2C1 (stereo not drawn) [Compound 308] | 10 to 40 µM |
| OC(COC1CCCCCC1)CN1CCc2ccccc2C1 (stereo not drawn) [Compound 309] | 1 to 10 µM |
| OC(COC1CCOCC1)CN1CCc2ccccc2C1 (stereo not drawn) [Compound 310] | 10 to 40 µM |

Source: patent US20180298010A1, “PRMT5 INHIBITORS AND USES THEREOF” (Epizyme, Inc., priority 2012, published 2018)
